The values below come from PMC10877733, “Discovery and Characterization of VU0542270, the First Selective Inhibitor of Vascular Kir6.1/SUR2B KATP Channels” (Molecular Pharmacology, 2024).

“Also recorded” adds a separate entry of the source. Read-outs that look alike come from different tables or passages of the source. Some results are limits rather than exact numbers.

In one experiment the target is T1, Kir2.1 (Homo sapiens, UniProt P63252).
T1 construct: expressed in transfected cells
T1 sequence (P63252 1-427): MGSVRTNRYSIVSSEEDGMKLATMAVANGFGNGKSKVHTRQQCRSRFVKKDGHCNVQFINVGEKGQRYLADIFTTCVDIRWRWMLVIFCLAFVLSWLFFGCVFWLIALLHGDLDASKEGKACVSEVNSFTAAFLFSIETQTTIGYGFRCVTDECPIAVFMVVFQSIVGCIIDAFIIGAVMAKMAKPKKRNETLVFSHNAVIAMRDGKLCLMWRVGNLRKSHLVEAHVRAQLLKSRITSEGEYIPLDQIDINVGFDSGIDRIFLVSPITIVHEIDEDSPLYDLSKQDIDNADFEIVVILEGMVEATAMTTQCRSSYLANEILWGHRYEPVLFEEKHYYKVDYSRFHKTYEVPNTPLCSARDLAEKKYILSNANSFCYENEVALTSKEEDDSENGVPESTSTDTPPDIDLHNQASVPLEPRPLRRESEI
In words: Thallium flux selectivity assay Kir2.1. It counts as cell-based. The procedure:
(§1) Quantitative thallium flux assays of Kir6.1/SUR2B activity were performed essentially as described previously for Kir6.2/SUR1 ([Raphemot et al., 2014]; [Kharade et al., 2019]). Stable T-Rex-HEK293-Kir6.1/SUR2B cells or transiently transfected HEK293T cells were plated in polyamine-coated, clear-bottomed, black-walled 384-well plates and were cultured (37°C/5% CO2) overnight in Dulbecco’s modified Eagle’s medium (Gibco, Carlsbad, CA, 11995-065) containing 10% FBS (2 mM Penicillin-Streptomycin). The following day, cells were washed with assay buffer (i.e., Hanks’ balanced salt solution/20 mM HEPES) and loaded for 1 hour with thallium sensor dye Brilliant Thallium (Ion Bioscience, San Marcos, TX) at room temperature. Dye-loaded cells were washed with assay buffer and transferred to a Panoptic Kinetic Imaging Plate Reader (Wavefront Bioscience, Franklin, TN). Control and test compound treatments were for 4 minutes prior to adding 0.5 mM chloride-free thallium stimulus buffer (Ion Bioscience) to initiate thallium flux. […] Selectivity assays against other Kir channels were performed essentially as described previously ([Kharade et al., 2018]; [McClenahan et al., 2022]).

For experiment [1], the system named is isolated mouse ductus arteriosus vessels. The experiment is described as follows: Pressure myography of isolated ductus arteriosus vessels. The settings on record: term gestation mouse DA. As to the method:
CD-1 mice were maintained at Vanderbilt University Medical Center in accordance with protocols approved by the Institutional Animal Care and Use Committee. Timed matings were performed to produce offspring at specific stages of development. The presence of a vaginal plug was designated as embryonic day 1.
Term-gestation (embryonic day 19) fetal mouse DAs were isolated and mounted on glass pipet tips in microvessel perfusion chambers as previously reported ([Hooper et al., 2016]). Deoxygenated Krebs buffer was warmed to 37°C and circulated throughout the chamber. Vessels were pressurized in a stepwise manner to physiologic neonatal mouse mean arterial pressure (20 mmHg) and then challenged with 50 mM KCl to test reactivity. […] For dose-response studies, vessels were first dilated by circulating Krebs buffer bubbled with 95% nitrogen, 5% CO2 to mimic the hypoxic conditions of the womb. […] Following each dose, lumen diameters were allowed to plateau (approximately 20 minutes) before the next dose was added. Continuous lumen diameter measurements were recorded using a digital image capture system (IonOptix). An N of >6 vessels from at least three different litters was used for each experimental condition. Changes in lumen diameter are represented as the percent change in diameter compared with the baseline lumen diameter of vessels prior to drug exposure. […] Values represent mean ± S.D.

The target of another experiment is T2, Kir6.1/SUR2B (Homo sapiens, UniProt O60706).
T2 construct: expressed in transfected cells; also transiently transfected HEK293T
T2 sequence (O60706 1-1549 isoform O60706-2, species assumed): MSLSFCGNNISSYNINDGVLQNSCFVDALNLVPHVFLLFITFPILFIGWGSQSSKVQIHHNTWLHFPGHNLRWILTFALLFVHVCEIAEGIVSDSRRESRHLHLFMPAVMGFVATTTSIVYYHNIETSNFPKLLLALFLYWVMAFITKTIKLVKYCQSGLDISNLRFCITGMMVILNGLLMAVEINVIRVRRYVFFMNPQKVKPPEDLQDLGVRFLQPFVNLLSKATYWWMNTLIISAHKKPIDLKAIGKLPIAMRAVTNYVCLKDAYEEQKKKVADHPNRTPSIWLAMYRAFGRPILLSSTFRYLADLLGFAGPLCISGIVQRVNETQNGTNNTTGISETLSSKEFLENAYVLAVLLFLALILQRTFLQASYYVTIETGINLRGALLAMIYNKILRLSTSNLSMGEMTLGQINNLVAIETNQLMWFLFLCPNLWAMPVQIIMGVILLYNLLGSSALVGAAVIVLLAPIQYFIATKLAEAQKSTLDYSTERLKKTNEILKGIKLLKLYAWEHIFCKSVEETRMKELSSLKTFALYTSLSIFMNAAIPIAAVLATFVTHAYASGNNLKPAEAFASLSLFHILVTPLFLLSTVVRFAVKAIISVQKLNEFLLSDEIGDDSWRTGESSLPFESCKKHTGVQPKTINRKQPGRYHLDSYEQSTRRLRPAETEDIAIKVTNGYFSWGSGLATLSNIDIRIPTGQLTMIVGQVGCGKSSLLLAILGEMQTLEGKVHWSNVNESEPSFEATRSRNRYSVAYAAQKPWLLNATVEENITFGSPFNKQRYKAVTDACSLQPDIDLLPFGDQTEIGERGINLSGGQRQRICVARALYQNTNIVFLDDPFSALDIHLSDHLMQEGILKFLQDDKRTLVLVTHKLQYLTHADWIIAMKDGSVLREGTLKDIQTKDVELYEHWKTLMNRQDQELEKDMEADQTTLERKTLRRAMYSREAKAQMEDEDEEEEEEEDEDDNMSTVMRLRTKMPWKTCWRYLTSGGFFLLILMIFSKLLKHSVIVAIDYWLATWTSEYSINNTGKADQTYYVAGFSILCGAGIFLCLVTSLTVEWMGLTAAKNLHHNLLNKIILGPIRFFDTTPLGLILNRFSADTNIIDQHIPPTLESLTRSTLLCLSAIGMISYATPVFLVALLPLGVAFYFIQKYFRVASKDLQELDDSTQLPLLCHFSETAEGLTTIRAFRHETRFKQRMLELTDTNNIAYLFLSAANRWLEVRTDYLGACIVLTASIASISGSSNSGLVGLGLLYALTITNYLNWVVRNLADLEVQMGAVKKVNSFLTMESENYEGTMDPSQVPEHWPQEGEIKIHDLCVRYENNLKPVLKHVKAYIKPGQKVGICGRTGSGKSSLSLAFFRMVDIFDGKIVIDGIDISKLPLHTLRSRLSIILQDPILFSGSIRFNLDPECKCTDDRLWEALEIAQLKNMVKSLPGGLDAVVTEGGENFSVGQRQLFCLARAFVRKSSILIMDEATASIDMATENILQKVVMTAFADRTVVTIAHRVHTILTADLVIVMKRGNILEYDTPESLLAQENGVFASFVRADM
T2 sequence (Q15842 whole entry partner, species assumed): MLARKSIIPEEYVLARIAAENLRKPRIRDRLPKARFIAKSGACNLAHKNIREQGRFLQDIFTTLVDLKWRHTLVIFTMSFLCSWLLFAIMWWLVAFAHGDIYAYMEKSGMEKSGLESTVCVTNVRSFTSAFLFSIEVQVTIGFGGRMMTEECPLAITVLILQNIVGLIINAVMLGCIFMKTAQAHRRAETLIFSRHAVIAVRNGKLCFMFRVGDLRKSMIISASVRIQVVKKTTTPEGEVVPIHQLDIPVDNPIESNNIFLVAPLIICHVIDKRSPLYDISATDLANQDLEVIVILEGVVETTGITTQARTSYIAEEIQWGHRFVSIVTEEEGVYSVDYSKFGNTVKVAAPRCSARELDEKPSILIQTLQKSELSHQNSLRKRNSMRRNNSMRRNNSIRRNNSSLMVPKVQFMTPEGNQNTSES
The experiment is described as follows: Thallium flux assay of Kir6.1/SUR2B in HEK293 cells. Type of experiment: cell-based. The text has this: The pcDNA3.1-SUR2B plasmid was generously provided by Dr. Colin Nichols (Washington University). […] Stably transfected tetracycline-regulated expression human embryonic kidney-293 (T-Rex-HEK293) cells expressing both plasmids were generated by cotransfecting cells with Lipofectamine LTX followed by antibiotic selection and clonal selection using the thallium flux assay described below. […] The cell culture media contained Dulbecco's modified Eagle's medium (Gibco, 11965-092) supplied with heat-inactivated FBS (bio-techne, Minneapolis, MN […],10%), Blasticidine HCl (Gibco, A11139-03, 10 ug/mL), Penicillin-Streptomycin (Gibco, 15140-122, 2 mM), G418 Sulfate (CORNING, Corning, NY, 30-234-CR, 1 mg/mL), and Hygromycin B (Invitrogen, Carlsbad, CA, 10687-010, 250 ug/mL). For selectivity assays, HEK293T cells were cotransfected with Kir6.x and SURX with Lipofectamine LTX and incubated for 48 hours before thallium flux assays. […] [[…] et al., 2019]). […] Dye-loaded cells were washed with assay buffer and transferred to a Panoptic Kinetic Imaging Plate Reader (Wavefront Bioscience, Franklin, TN). Control and test compound treatments were for 4 minutes prior to adding 0.5 mM chloride-free thallium stimulus buffer (Ion Bioscience) to initiate thallium flux. […] Selectivity assays against other Kir channels were performed essentially as described previously ([[…] et al., 2018]; [[…] al., 2022]). […] Data were acquired using Panoptic Software, Waveguide (Wavefront Biosciences). Raw fluorescence values were imported for analysis into custom software (VICB, Vanderbilt University). Fluorescence versus time values for each well were normalized to the initial fluorescence value [F/F0]. […] CRC data were plotted in GraphPad Prism (GraphPad Software, San Diego, CA) and fitted with a four-parameter logistic model to determine IC50 values for rank-ordering hit potency.

The target of the next experiment is T3, Kir2.3 (Homo sapiens, UniProt P48050).
T3 construct: expressed in transfected cells
T3 sequence (P48050 1-445): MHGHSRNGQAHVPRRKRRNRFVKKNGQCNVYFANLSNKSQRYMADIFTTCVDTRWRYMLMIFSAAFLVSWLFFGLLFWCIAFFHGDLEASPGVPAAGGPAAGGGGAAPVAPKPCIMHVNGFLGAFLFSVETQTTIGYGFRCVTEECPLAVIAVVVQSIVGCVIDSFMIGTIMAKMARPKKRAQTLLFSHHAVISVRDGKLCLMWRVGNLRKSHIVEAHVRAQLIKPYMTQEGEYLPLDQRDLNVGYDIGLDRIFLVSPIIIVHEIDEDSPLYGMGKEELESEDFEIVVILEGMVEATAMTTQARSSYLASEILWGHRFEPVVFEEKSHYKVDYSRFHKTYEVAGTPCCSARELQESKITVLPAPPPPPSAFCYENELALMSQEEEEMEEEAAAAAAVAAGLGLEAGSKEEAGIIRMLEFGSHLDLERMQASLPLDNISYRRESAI
In words: Thallium flux selectivity assay Kir2.3. Type of experiment: cell-based. The procedure: as §1

Regarding `Cc1nc(-c2cccs2)sc1CNC(=O)Nc1cccs1` [VU0542270], the IC50 against Kir2.1 is more than 30 µM; on Kir6.1/SUR2B (Table 1 selectivity profile, read-out: IC50 Kir6.1/SUR2B), 0.11 µM; at Kir6.1/SUR2B (pinacidil-activated, read-out: Kir6.1/SUR2B IC50) it was 0.104 µM; at Kir6.1/SUR2B (transfected HEK-293 cells, pinacidil activation, read-out: Kir6.1/SUR2B IC50 (Fig. 4C)) it was 0.129 µM; at Kir2.3, more than 30 µM. For the same molecule, the “ductus arteriosus vessel constriction” value in experiment [1] (increasing concentrations, compound alone) is reported as “induced ductus arteriosus constriction in a dose-dependent manner; also recorded: constricted in a concentration-dependent manner”. For the same molecule, the “ductus arteriosus vessel constriction in the presence of pinacidil” value in experiment [1] (with 10 µM pinacidil) is “substantially blunted vasoconstrictive effects”.
